The source of these data is US20260168988A1, “GENETICALLY ENCODED REPORTER EXPRESSION SYSTEMS AND METHODS OF MAKING AND USING SAME” (Duke University, priority 2021, published 2026).

Entries after “also recorded” stand apart in the source; their conditions may differ.

What all share (assay type): cell-based
The test system of assay [1] is METTL3. Kind of assay: m6A sensor system in METTL3 degron cells treated with auxin. Particulars: METTL3 degron HEK293T cells, auxin 48 hours, compared to DMSO-treated cells. As for the experimental part: To confirm that the m^6A sensor is METTL3-dependent, the m^6A sensor system was expressed in HEK293T cells which contain an auxin-inducible degradation tag at the endogenous METTL3 locus (METTL3 degron cells). Cells were treated with auxin for 48 hours and then transfected with the m^6A sensor system. […] Conversely, overexpression of METTL3 causes increased GFP fluorescence, a higher GFP:GFP-DHFR ratio, and increased C-to-U editing of the sensor sequence (FIGS. 5A-5C).

The target in assay [2] is T1, METTL3 (Homo sapiens, UniProt Q86U44).
T1 construct: endogenous in cells; host or cells: HEK293T
T1 sequence (Q86U44 2-580 limits assumed): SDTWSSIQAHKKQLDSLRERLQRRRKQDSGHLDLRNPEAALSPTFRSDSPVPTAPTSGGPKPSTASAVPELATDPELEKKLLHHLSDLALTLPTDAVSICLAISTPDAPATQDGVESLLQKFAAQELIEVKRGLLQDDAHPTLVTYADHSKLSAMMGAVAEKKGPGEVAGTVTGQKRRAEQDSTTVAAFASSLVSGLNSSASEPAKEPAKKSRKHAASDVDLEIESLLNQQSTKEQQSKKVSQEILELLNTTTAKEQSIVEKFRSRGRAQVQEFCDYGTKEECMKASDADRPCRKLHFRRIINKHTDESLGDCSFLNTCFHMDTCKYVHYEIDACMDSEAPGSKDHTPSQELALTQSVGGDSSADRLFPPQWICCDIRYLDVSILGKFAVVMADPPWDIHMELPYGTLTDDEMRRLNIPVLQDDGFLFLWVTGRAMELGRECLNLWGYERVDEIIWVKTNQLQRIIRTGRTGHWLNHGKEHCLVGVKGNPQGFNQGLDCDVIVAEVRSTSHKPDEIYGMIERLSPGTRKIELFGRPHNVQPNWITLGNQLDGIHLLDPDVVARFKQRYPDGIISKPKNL
T1 sequence (Q9HCE5 whole entry partner): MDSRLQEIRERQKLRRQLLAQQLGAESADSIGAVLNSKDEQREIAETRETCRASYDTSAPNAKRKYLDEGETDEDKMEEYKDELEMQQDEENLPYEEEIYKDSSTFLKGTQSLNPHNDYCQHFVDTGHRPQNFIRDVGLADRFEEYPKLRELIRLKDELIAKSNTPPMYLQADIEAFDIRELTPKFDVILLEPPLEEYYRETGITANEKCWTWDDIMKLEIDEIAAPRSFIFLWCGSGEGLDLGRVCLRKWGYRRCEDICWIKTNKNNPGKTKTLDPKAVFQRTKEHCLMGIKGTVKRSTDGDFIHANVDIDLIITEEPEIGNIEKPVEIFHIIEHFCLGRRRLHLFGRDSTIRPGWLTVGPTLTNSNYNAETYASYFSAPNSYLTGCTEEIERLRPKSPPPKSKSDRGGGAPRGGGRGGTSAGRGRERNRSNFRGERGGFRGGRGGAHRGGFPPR
Kind of assay: m6A sensor system in HEK293T cells treated with METTL3 inhibitor. Particulars: HEK293T cells expressing the m6A sensor system, after treatment.

In a further assay the test system is APO1-YTH. Kind of assay: Inducible APO1-YTH expression in HEK293T stable m6A reporter cell lines. Particulars: time courses of dox induction. From the text:
HEK293T stable cells were generated which express both the m^6A reporter and APO1-YTH. The m^6A reporter was constitutively expressed from the CMV reporter, while APO1-YTH was inducibly expressed after treatment of cells with doxycycline (dox).
Cyclophilin A (CycloA) is shown as a loading control.
Another embodiment of the present disclosure provides stable cell lines that express the m^6A reporter system as provided herein. To do this, stable cell lines expressing both the m^6A reporter and APO1-YTH were generated by transfecting HEK293T cells with a dual-promoter plasmid encoding both components of the reporter system. This plasmid drives m^6A reporter expression from the CMV promoter and APO1-YTH expression using an inducible […] promoter. However, any dual-promoter system could also be used and different promoters (inducible and constitutive) could also be used with this m^6A reporter system. The m^6A reporter system provided herein may also be applied in other mammalian and non-mammalian cell types as well.
Following selection of stable cells with puromycin resistance which was conferred by genomic integration of the plasmid, it was next sought to confirm that the reporter system works in the context of stable integration of the m^6A reporter and APO1-YTH components. […]

The test system of another assay is NMD. Nature of the assay: m6A reporter mRNA levels after blocking nonsense-mediated decay (RT-qPCR). Particulars: HEK293T cells expressing the m6A sensor system, CHX for 24 h. As to the method: HEK293T cells expressing the m6A sensor system were treated with CHX for 24 h to inhibit NMD, followed by RT-qPCR of the m^6A reporter mRNA.
The possibility that the m^6A reporter mRNA could be susceptible to nonsense-mediated decay (NMD), since editing of the m6A reporter mRNA produces premature stop codons, was investigated. However, this is unlikely since most NMD requires the presence of the exon junction complex (EJC), and the m^6A reporter transcript lacks introns.
On the technique in general: Real-time PCR tracks product formation cycle by cycle.

Turning to `O=C(O)Cc1c[nH]c2ccccc12` [auxin], the “C-to-U editing of the m6A sensor sequence (RT-PCR/Sanger sequencing)” value in the assay on METTL3 [1] is recorded as “decreased C-to-U editing”; with METTL3 [1] (listed as Auxin) it was “reduced C-to-U editing”. The “GFP:GFP-DHFR ratio (western blot)” value with METTL3 [1] was “reduced GFP:GFP-DHFR ratio”. In addition, the “GFP fluorescence of m6A sensor” value in the assay on METTL3 [1] (then transfected, assessed 24 hours later) is “greatly diminished; also recorded: reduced m^6A sensor fluorescence”.

Consider STM2457, for which, at METTL3 [2], the “C-to-U editing of the m6A sensor sequence (RT-PCR/Sanger sequencing)” value is “lower levels of C-to-U editing; also recorded: reduced C-to-U editing”, the “GFP fluorescence of m6A sensor system” value is “reduces GFP fluorescence” and the “GFP protein (Western blot)” value is recorded as “reduced GFP protein; also recorded: reduction of GFP expression”.

`C[C@H]1c2cccc(O)c2C(=O)C2=C(O)[C@]3(O)C(=O)C(C(N)=O)=C(O)[C@@H](N(C)C)[C@@H]3[C@@H](O)[C@@H]21` [doxycycline]: the “duration of dox treatment sufficient for APO1-YTH induction and EGFP fluorescence” value in the assay with APO1-YTH was determined as 24 h.

Take `C[C@@H]1C[C@@H]([C@H](O)CC2CC(=O)NC(=O)C2)C(=O)[C@@H](C)C1` [cycloheximide]: the “levels of the m6A reporter mRNA (RT-qPCR)” value in the assay with NMD was “did not cause changes”.
